We go through 23 compounds from US7507860B2 (Pfizer Inc., priority 2004, dated 2009).

Changes are numbered by the printed parent chain. pIC50: −log10 of the molar value. Where two headings read alike, the source gives them in different places.

Experiment [1] addresses T1, androgen receptor (Homo sapiens, UniProt P10275).
T1 sequence (P10275 1-920 Q868H): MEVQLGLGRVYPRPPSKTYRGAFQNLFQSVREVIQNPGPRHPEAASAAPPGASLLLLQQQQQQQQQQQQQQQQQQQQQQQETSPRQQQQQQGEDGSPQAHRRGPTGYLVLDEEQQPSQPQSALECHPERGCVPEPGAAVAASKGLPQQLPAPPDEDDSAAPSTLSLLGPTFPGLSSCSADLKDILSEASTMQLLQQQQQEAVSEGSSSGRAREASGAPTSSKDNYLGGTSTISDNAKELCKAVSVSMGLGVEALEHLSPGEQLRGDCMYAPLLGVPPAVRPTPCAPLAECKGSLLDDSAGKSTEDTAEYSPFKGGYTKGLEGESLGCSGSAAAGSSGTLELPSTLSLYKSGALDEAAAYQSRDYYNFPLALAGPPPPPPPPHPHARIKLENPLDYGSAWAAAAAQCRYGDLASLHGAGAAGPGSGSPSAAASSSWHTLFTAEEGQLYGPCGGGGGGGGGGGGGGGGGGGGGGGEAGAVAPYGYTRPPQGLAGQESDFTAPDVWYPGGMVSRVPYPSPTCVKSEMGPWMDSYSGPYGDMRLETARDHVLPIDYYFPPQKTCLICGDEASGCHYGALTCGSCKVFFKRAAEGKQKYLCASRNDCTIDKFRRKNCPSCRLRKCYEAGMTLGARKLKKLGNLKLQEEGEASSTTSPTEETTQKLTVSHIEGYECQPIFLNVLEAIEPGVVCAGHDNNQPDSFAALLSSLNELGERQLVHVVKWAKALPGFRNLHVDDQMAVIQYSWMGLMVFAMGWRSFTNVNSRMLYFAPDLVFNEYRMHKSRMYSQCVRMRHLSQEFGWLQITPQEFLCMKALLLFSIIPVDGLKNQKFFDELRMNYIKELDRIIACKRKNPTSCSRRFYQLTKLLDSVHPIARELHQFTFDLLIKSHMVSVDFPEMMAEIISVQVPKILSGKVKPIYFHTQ
In words: AR antagonist cell assay (MDA-MB453-MMTV clone 54-19 luciferase reporter, 100 pM DHT). The format is cell-based. An outline of the steps:
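MDA-MB453 cells stably carrying an MMTV-ARE firefly luciferase reporter were plated overnight at 10,000/well in phenol-red-free, charcoal-stripped serum medium. Cells were stimulated with 100 pM DHT (final) for 17 hr at 37 °C, and AR antagonism was read as luciferase signal; values are means of multiple tests.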

The target in experiment [2] is T2, human androgen receptor (hAR) (Homo sapiens, UniProt P10275).
T2 construct: made in house; host or cells: baculovirus/Sf9 insect cells (crude extract)
T2 sequence (P10275 1-920): T1 sequence (P10275 1-920 Q868H) with H868Q
In words: Competitive binding analysis on baculovirus/Sf9 generated hAR extracts with 3H-DHT tracer. Conditions: hAR extract, 1 nM 3H-DHT, one hour at 4° C, mean of multiple tests; for pIC50: read-out: AR Binding IC50; for IC50: AR Binding IC50 (nM). An outline of the steps: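 Baculovirus/Sf9-expressed hAR extract incubated with hydroxylapatite, 1 nM 3H-DHT and decreasing compound concentrations for 1 h at 4 °C, then washed three times to remove unbound tracer. Bound 3H-DHT compared with no-competitor maximum; affinity given as concentration inhibiting half of maximum binding, mean of multiple tests.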

The mark [3] stands for this setting: MDA-MB453-MMTV clone 54-19, inhibition of 100 pM DHT induction, 17 hr; mean of multiple tests; read-out: AR Cell IC50.
The mark [4] stands for this setting: read-out: AR Cell IC50; MDA-MB453-MMTV clone 54-19, inhibition of 100 pM DHT induction, 17 hr; mean of multiple tests.

One may read the pIC50 as the IC50 on a negative log10 scale, so that one unit is a factor of ten. Usually IC50 stands for the concentration needed to halve the response being measured.

Turning to `COc1ccc(CNC(=O)C(CC(C)C)Oc2ccc(C#N)c(C(F)(F)F)c2)cc1` (stereo not shown) [Example 73, 2-(4-Cyano-3-trifluoromethyl-phenoxy)-4-methyl-pentanoic acid-4-methoxy-benzylamide], the figures for the negative-log IC50 (pIC50) in experiment [1] (setting [3]) and in experiment [2] were 6.37 and 7.04, respectively.
Consider `CC(C)CC(Oc1ccc(C#N)c(C(F)(F)F)c1)C(=O)NCc1ccc(O)c(O)c1` (stereo not shown) [Example 74, 2-(4-Cyano-3-trifluoromethyl-phenoxy)-4-methyl-pentanoic acid-3,4-dihydroxy-benzylamide], for which the negative logarithm of the IC50 (pIC50) is 6.01 in experiment [1] (setting [3]) and 6.86 in experiment [2].
With `Cc1ccc(NC(=O)C(CC(C)C)Oc2ccc(C#N)c(C(F)(F)F)c2)cc1O` (stereo not shown) [Example 78, 2-(4-Cyano-3-trifluoromethyl-phenoxy)-4-methyl-pentanoic acid (3-hydroxy-4-methyl-phenyl)-amide], the values for the pIC50 in experiment [1] (setting [3]) and in experiment [2] were 6.02 and 6.92, respectively.
In the same order, the values of `CC(C)CC(Oc1ccc(C#N)c(C(F)(F)F)c1)C(=O)N(CCO)C(C)C` (stereo not shown) [Example 79, 2-(4-Cyano-3-trifluoromethyl-phenoxy)-4-methyl-pentanoic acid (2-hydroxy-ethyl)isopropyl-amide] are less than 6.00 and 5.50.
Regarding `CCCOCCNC(=O)C(CC(C)C)Oc1ccc(C#N)c(C(F)(F)F)c1` (stereo not shown) [Example 81, 2-(4-Cyano-3-trifluoromethyl-phenoxy)-4-methyl-pentanoic acid (2-propoxy-ethyl)amide], the negative-log IC50 (pIC50) in experiment [1] (setting [3]) is less than 6.00; in experiment [2], 6.85.
In the same order, the values of `CCC(COC)NC(=O)C(CC(C)C)Oc1ccc(C#N)c(C(F)(F)F)c1` (stereo not shown) [Example 82, 2-(4-Cyano-3-trifluoromethyl-phenoxy)-4-methyl-pentanoic acid (1-methoxymethyl-propyl)-amide] are less than 6.00 and 6.66.
For the compound `CSCCNC(=O)C(CC(C)C)Oc1ccc(C#N)c(C(F)(F)F)c1` (stereo not shown) [Example 83, 2-(4-Cyano-3-trifluoromethyl-phenoxy)-4-methyl-pentanoic acid (2-methylsulfanyl-ethyl)-amide], the results for the negative-log IC50 (pIC50) in experiment [1] (setting [3]) and in experiment [2] were less than 6.00 and 7.07, respectively.
The like results for `Cc1c(O)cccc1NC(=O)C(CC(C)C)Oc1ccc(C#N)c(C(F)(F)F)c1` (stereo not shown) [Example 84, 2-(4-Cyano-3-trifluoromethyl-phenoxy)-4-methyl-pentanoic acid (3-hydroxy-2-methyl-phenyl)-amide] were, in that order, less than 6.00 and 6.95.
The like results for `CCCOCCCNC(=O)C(CC(C)C)Oc1ccc(C#N)c(C(F)(F)F)c1` (stereo not shown) [Example 85, 2-(4-Cyano-3-trifluoromethyl-phenoxy)-4-methyl-pentanoic acid (3-propoxy-propyl)-amide] were, in that order, less than 6.00 and 6.93.
For `CCN(CCOC)C(=O)C(CC(C)C)Oc1ccc(C#N)c(C(F)(F)F)c1` (stereo not shown) [Example 86, 2-(4-Cyano-3-trifluoromethyl-phenoxy)-4-methyl-pentanoic acid ethyl(2-methoxyethyl)-amide], the values for the pIC50 in experiment [1] (setting [3]) and in experiment [2] were less than 6.00 and 7.60, respectively.
In the same order, the values of `COc1ccccc1NC(=O)C(CC(C)C)Oc1ccc(C#N)c(C(F)(F)F)c1` (stereo not shown) [Example 87, 2-(4-Cyano-3-trifluoromethyl-phenoxy)-4-methyl-pentanoic acid (2-methoxy-phenyl)-amide] are less than 6.00 and 6.92.
Regarding `CCCCC(Oc1ccc(C#N)c(C(F)(F)F)c1)C(=O)NCc1ccccc1` (stereo not shown) [Example 91, 2-(4-Cyano-3-trifluoromethyl-phenoxy)-hexanoic acid benzylamide], the pIC50 is 6.27 in experiment [1] (setting [3]) and 7.15 in experiment [2].
With `CC(C)C(Oc1ccc(C#N)c(C(F)(F)F)c1)C(=O)NCc1ccccc1` (stereo not shown) [Example 92, N-Benzyl-2-(4-Cyano-3-trifluoromethyl-phenoxy)-3-methyl-butyramide], the pIC50 was 6.25 in experiment [1] (setting [3]) and 6.46 in experiment [2].
In the case of `CCC(Oc1ccc(C#N)c(C(F)(F)F)c1)C(=O)NCc1ccccc1` (stereo not shown) [Example 93, N-Benzyl-2-(4-Cyano-3-trifluoromethyl-phenoxy)-butyramide], the pIC50 in experiment [1] (setting [3]) is 6.25. Also, the IC50 in experiment [2] turned out to be 485 nM.
The like results for `CC(C)C[C@@H](Oc1ccc(C#N)c(C(F)(F)F)c1)C(=O)NCc1ccccc1` [Example 94, (R)-2-(4-Cyano-3-trifluoromethyl-phenoxy)-4-methyl-pentanoic acid benzylamide] were, in that order, 6.85 and 66 nM.
The like results for `CCC[C@@H](Oc1ccc(C#N)c(C(F)(F)F)c1)C(=O)NCc1ccccc1` [Example 95, (R)-2-(4-Cyano-3-trifluoromethyl-phenoxy)-pentanoic acid benzylamide] were, in that order, 7.49 and 126 nM.
In the case of `CCC[C@@H](Oc1ccc(C#N)c(C(F)(F)F)c1)C(=O)NCc1ccccc1C` [Example 96, (R)-2-(Cyano-3-trifluoromethyl-phenoxy)-pentanoic acid 2-methyl-benzylamide], the pIC50 in experiment [1] (setting [3]) is 6.86. The IC50 in experiment [2] amounted to 95 nM.
In the case of `CCCC(Oc1ccc(C#N)c(C(F)(F)F)c1)C(=O)NCCc1c[nH]c2ccc(OC)cc12` (stereo not shown) [Example 97, 2-(4-Cyano-3-trifluoromethyl-phenoxy)-pentanoic acid [2-(5-methoxy-1H-indol-3-yl)-ethyl]-amide], the pIC50 is 7.59 in experiment [1] (setting [4]) and 6.95 in experiment [2].
As to `CCCC(Oc1ccc(C#N)c(Cl)c1)C(=O)OCC` (stereo not shown) [Example 99, 2-(3-Chloro-4-cyano-phenoxy)-pentanoic acid ethyl ester], the pIC50 was 6.13 in experiment [1] (setting [3]) and 7.51 in experiment [2].
The like results for `CCCC(Oc1ccc(C#N)c(Cl)c1)C(=O)NCCc1c[nH]c2ccccc12` (stereo not shown) [Example 101, 2-(3-Chloro-4-cyano-phenoxy)-pentanoic acid [2-(1H-indol-3-yl)-ethyl]-amide] were, in that order, 7.42 and 7.28.
Turning to `CCCC(Oc1ccc(C#N)c(Cl)c1)C(=O)NCc1ccccc1` (stereo not shown) [Example 102, 2-(3-Chloro-4-cyano-phenoxy)-pentanoic acid benzylamide], the pIC50 in experiment [1] (setting [4]) is 7.57; in experiment [2] it was 6.90.
The like results for `CCCC(Oc1ccc(C#N)c(Cl)c1)C(=O)NCCc1ccc(O)cc1` (stereo not shown) [Example 103, 2-(3-Chloro-4-cyano-phenoxy)-pentanoic acid [2-(4-hydroxy-phenyl)-ethyl]-amide] were, in that order, 7.06 and 6.85.
The like results for `CCC[C@H](Oc1ccc(C#N)c(Cl)c1)C(=O)NCc1ccccc1` [Example 104, (S)-2-(3-Chloro-4-cyano-phenoxy)-pentanoic acid benzylamide] were, in that order, 8.15 and 6.62.
